Measurements from ChEMBL document CHEMBL3603744, “Structure activity relationship of C-2 ether substituted 1,5-naphthyridine analogs of oxabicyclooctane-linked novel bacterial topoisomerase inhibitors as broad-spectrum antibacterial agents (Part-5)” (Bioorg Med Chem Lett, 2015).
Values after ≈ are worked out from the molar mass of the structure shown. Active and inactive are the calls of the source. How the calls were made is not given here.

What was measured:
Streptococcus pneumoniae = test: Antimicrobial activity against Streptococcus pneumoniae IID553 by micro broth dilution or agar based method; type: functional
Acinetobacter baumannii = test: Antimicrobial activity against Acinetobacter baumannii IID876 by micro broth dilution or agar based method; type: functional
Staphylococcus aureus [1] = test: Antimicrobial activity against Staphylococcus aureus Smith by micro broth dilution or agar based method; type: functional
Escherichia coli = test: Antimicrobial activity against Escherichia coli ATCC 25922 by micro broth dilution or agar based method; type: functional
Staphylococcus aureus [2] = test: Antimicrobial activity against methicillin-resistant Staphylococcus aureus OIT971 by micro broth dilution or agar based method; type: functional, organism-based
Pseudomonas aeruginosa = test: Antimicrobial activity against Pseudomonas aeruginosa PAO1 by micro broth dilution or agar based method; type: functional
Enterococcus faecium = test: Antimicrobial activity against vancomycin-resistant Enterococcus faecium VanA by micro broth dilution or agar based method; type: functional

| Compound | MIC (Streptococcus pneumoniae) [µg/mL] | MIC (Acinetobacter baumannii) [µg/mL] | MIC (Staphylococcus aureus [1]) [µg/mL] | MIC (Escherichia coli) [µg/mL] | growth inhibition (GI) (Staphylococcus aureus [2]) | MIC (Pseudomonas aeruginosa) [µg/mL] | MIC (Enterococcus faecium) [µg/mL] |
| --- | --- | --- | --- | --- | --- | --- | --- |
| N[C@@H]1CO[C@@H]1COc1ccc2ncc(F)c(CCC34CCC(NCc5ccc6c(n5)NC(=O)CO6)(CC3)CO4)c2n1 | 1 (≈ 1.77 µM) | 1 (≈ 1.77 µM) | 0.125 (≈ 0.221 µM) | 8 (≈ 14.2 µM) | Active | 32 (≈ 56.7 µM) | 8 (≈ 14.2 µM) |
| O=C(O)COc1ccc2ncc(F)c(CCC34CCC(NCc5ccc6c(n5)NC(=O)CO6)(CC3)CO4)c2n1 | 16 (≈ 29.8 µM) | 16 (≈ 29.8 µM) | 16 (≈ 29.8 µM) | 16 (≈ 29.8 µM) | Active | 16 (≈ 29.8 µM) | 16 (≈ 29.8 µM) |
| NC(=O)C(F)(F)CCOc1ccc2ncc(F)c(CCC34CCC(NCc5ccc6c(n5)NC(=O)CO6)(CC3)CO4)c2n1 | 1 (≈ 1.67 µM) | 4 (≈ 6.66 µM) | 0.063 (≈ 0.105 µM) | 8 (≈ 13.3 µM) | Active | 32 (≈ 53.3 µM) | 8 (≈ 13.3 µM) |
| O=C1COc2ccc(CNC34CCC(CCc5c(F)cnc6ccc(OCCCCCO)nc56)(CC3)OC4)nc2N1 [listing 1 of 2 here] | 1 (≈ 1.77 µM) | 8 (≈ 14.1 µM) | 0.063 (≈ 0.111 µM) | 8 (≈ 14.1 µM) |  | 8 (≈ 14.1 µM) | 4 (≈ 7.07 µM) |
| O=C1COc2ccc(CNC34CCC(CCc5c(F)cnc6ccc(OCCc7cc(=O)c(O)c[nH]7)nc56)(CC3)OC4)nc2N1 | 8 (≈ 13 µM) | 32 (≈ 51.9 µM) | 16 (≈ 25.9 µM) | 32 (≈ 51.9 µM) | Active | 32 (≈ 51.9 µM) | 32 (≈ 51.9 µM) |
| N[C@H]1CO[C@@H]1COc1ccc2ncc(F)c(CCC34CCC(NCc5ccc6c(n5)NC(=O)CO6)(CC3)CO4)c2n1 | 0.5 (≈ 0.886 µM) | 0.5 (≈ 0.886 µM) | 0.125 (≈ 0.221 µM) | 4 (≈ 7.08 µM) | Active | 16 (≈ 28.3 µM) | 4 (≈ 7.08 µM) |
| N[C@@H]1CO[C@H]1COc1ccc2ncc(F)c(CCC34CCC(NCc5ccc6c(n5)NC(=O)CO6)(CC3)CO4)c2n1 | 2 (≈ 3.54 µM) | 1 (≈ 1.77 µM) | 0.25 (≈ 0.443 µM) | 4 (≈ 7.08 µM) | Active | 16 (≈ 28.3 µM) | 8 (≈ 14.2 µM) |
| CC(C)(O)CCOc1ccc2ncc(F)c(CCC34CCC(NCc5ccc6c(n5)NC(=O)CO6)(CC3)CO4)c2n1 | 4 (≈ 7.07 µM) | 16 (≈ 28.3 µM) | 1 (≈ 1.77 µM) | 16 (≈ 28.3 µM) | Active | 16 (≈ 28.3 µM) | 16 (≈ 28.3 µM) |
| CCOC(=O)CCCOc1ccc2ncc(F)c(CCC34CCC(NCc5ccc6c(n5)NC(=O)CO6)(CC3)CO4)c2n1 | 0.125 (≈ 0.211 µM) | 2 (≈ 3.37 µM) | 0.031 (≈ 0.0522 µM) | 8 (≈ 13.5 µM) | Active | 8 (≈ 13.5 µM) | 2 (≈ 3.37 µM) |
| COCCOc1ccc2ncc(F)c(CCC34CCC(NCc5ccc6c(n5)NC(=O)CO6)(CC3)CO4)c2n1 [listing 1 of 2 here] |  |  |  |  | Active |  |  |
| NCC(O)COc1ccc2ncc(F)c(CCC34CCC(NCc5ccc6c(n5)NC(=O)CO6)(CC3)CO4)c2n1 (stereo not given) | 1 (≈ 1.81 µM) | 32 (≈ 57.9 µM) | 2 (≈ 3.62 µM) | 8 (≈ 14.5 µM) | Active | 16 (≈ 29 µM) | 16 (≈ 29 µM) |
| CCOC(=O)COc1ccc2ncc(F)c(CCC34CCC(NCc5ccc6c(n5)NC(=O)CO6)(CC3)CO4)c2n1 | 16 (≈ 28.3 µM) | 8 (≈ 14.1 µM) | 0.25 (≈ 0.442 µM) | 16 (≈ 28.3 µM) | Active | 16 (≈ 28.3 µM) | 16 (≈ 28.3 µM) |
| O=C1COc2ccc(CNC34CCC(CCc5c(F)cnc6ccc(OCC(F)(F)F)nc56)(CC3)OC4)nc2N1 | 1 (≈ 1.78 µM) | 8 (≈ 14.2 µM) | 0.063 (≈ 0.112 µM) | 16 (≈ 28.5 µM) | Active | 16 (≈ 28.5 µM) | 4 (≈ 7.12 µM) |
| O=C1COc2ccc(CNC34CCC(CCc5c(F)cnc6ccc(OCC7(O)COC7)nc56)(CC3)OC4)nc2N1 | 0.5 (≈ 0.884 µM) | 4 (≈ 7.07 µM) | 0.125 (≈ 0.221 µM) | 16 (≈ 28.3 µM) | Active | 32 (≈ 56.6 µM) | 4 (≈ 7.07 µM) |
| NC1COCC1Oc1ccc2ncc(F)c(CCC34CCC(NCc5ccc6c(n5)NC(=O)CO6)(CC3)CO4)c2n1 (stereo not given) | 1 (≈ 1.77 µM) | 1 (≈ 1.77 µM) | 0.125 (≈ 0.221 µM) | 4 (≈ 7.08 µM) | Active | 16 (≈ 28.3 µM) | 8 (≈ 14.2 µM) |
| NC1(COc2ccc3ncc(F)c(CCC45CCC(NCc6ccc7c(n6)NC(=O)CO7)(CC4)CO5)c3n2)CC1 | 1 (≈ 1.82 µM) | 1 (≈ 1.82 µM) | 0.25 (≈ 0.456 µM) | 2 (≈ 3.65 µM) | Active | 16 (≈ 29.2 µM) | 8 (≈ 14.6 µM) |
| O=C(O)CCCCOc1ccc2ncc(F)c(CCC34CCC(NCc5ccc6c(n5)NC(=O)CO6)(CC3)CO4)c2n1 | 0.25 (≈ 0.431 µM) | 16 (≈ 27.6 µM) | 0.063 (≈ 0.109 µM) | 16 (≈ 27.6 µM) | Active | 16 (≈ 27.6 µM) | 2 (≈ 3.45 µM) |
| O=C1COc2ccc(CNC34CCC(CCc5c(F)cnc6ccc(OCCCCCO)nc56)(CC3)OC4)nc2N1 [listing 2 of 2 here] |  |  |  |  | Active |  |  |
| O=C1COc2ccc(CNC34CCC([C@@H](O)Cc5c(F)cnc6ccc(OCCCO)nc56)(CC3)OC4)nc2N1 [listing 1 of 2 here] | 0.5 (≈ 0.903 µM) | 4 (≈ 7.23 µM) | 0.125 (≈ 0.226 µM) | 16 (≈ 28.9 µM) |  | 16 (≈ 28.9 µM) | 4 (≈ 7.23 µM) |
| O=C1COc2ccc(CNC34CCC([C@@H](O)Cc5c(F)cnc6ccc(OCCCO)nc56)(CC3)OC4)nc2N1 [listing 2 of 2 here] |  |  |  |  | Active |  |  |
| NCCCOc1ccc2ncc(F)c(CCC34CCC(NCc5ccc6c(n5)NC(=O)CO6)(CC3)CO4)c2n1 [listing 1 of 2 here] |  |  |  |  | Active |  |  |
| COC(=O)[C@@H]1C[C@@H]1COc1ccc2ncc(F)c(CCC34CCC(NCc5ccc6c(n5)NC(=O)CO6)(CC3)CO4)c2n1 (relative stereo) |  |  |  |  | Active |  |  |
| COc1ccc2ncc(F)c(C[C@H](O)C34CCC(NCc5ccc6c(n5)NC(=O)CO6)(CC3)CO4)c2n1 [listing 1 of 2 here] |  |  |  |  | Active |  |  |
| NCCCOc1ccc2ncc(F)c(CCC34CCC(NCc5ccc6c(n5)NC(=O)CO6)(CC3)CO4)c2n1 [listing 2 of 2 here] | 0.5 (≈ 0.932 µM) | 2 (≈ 3.73 µM) | 0.25 (≈ 0.466 µM) | 2 (≈ 3.73 µM) |  | 8 (≈ 14.9 µM) | 4 (≈ 7.45 µM) |
| O=C1COc2ccc(CNC34CCC(CCc5c(F)cnc6ccc(OCCO)nc56)(CC3)OC4)nc2N1 [listing 1 of 2 here] |  |  |  |  | Active |  |  |
| O=C1COc2ccc(CNC34CCC(CCc5c(F)cnc6ccc(OCCO)nc56)(CC3)OC4)nc2N1 [listing 2 of 2 here] | 0.25 (≈ 0.477 µM) | 1 (≈ 1.91 µM) | 0.031 (≈ 0.0592 µM) | 4 (≈ 7.64 µM) |  | 8 (≈ 15.3 µM) | 1 (≈ 1.91 µM) |
| COCCOc1ccc2ncc(F)c(CCC34CCC(NCc5ccc6c(n5)NC(=O)CO6)(CC3)CO4)c2n1 [listing 2 of 2 here] | 1 (≈ 1.86 µM) | 4 (≈ 7.44 µM) | 0.063 (≈ 0.117 µM) | 8 (≈ 14.9 µM) |  | 16 (≈ 29.8 µM) | 4 (≈ 7.44 µM) |
| O=C1COc2ccc(CNC34CCC(CCc5c(F)cnc6ccc(OCCCO)nc56)(CC3)OC4)nc2N1 [listing 1 of 2 here] |  |  |  |  | Active |  |  |
| O=C1COc2ccc(CNC34CCC(CCc5c(F)cnc6ccc(OCCCO)nc56)(CC3)OC4)nc2N1 [listing 2 of 2 here] | 0.25 (≈ 0.465 µM) | 2 (≈ 3.72 µM) | 0.016 (≈ 0.0298 µM) | 4 (≈ 7.44 µM) |  | 16 (≈ 29.8 µM) | 1 (≈ 1.86 µM) |
| COc1ccc2ncc(F)c(C[C@H](O)C34CCC(NCc5ccc6c(n5)NC(=O)CO6)(CC3)CO4)c2n1 [listing 2 of 2 here] | 0.05 (≈ 0.0981 µM) | 0.5 (≈ 0.981 µM) | 0.02 (≈ 0.0393 µM) | 2 (≈ 3.93 µM) |  | 8 (≈ 15.7 µM) | 0.5 (≈ 0.981 µM) |
